Measurements taken from the NIST ThermoML archive (doi:10.1016/j.tca.2015.03.023).

Tests used:
[1] = 298.15 K, Liquid
[2] = mn = molality of the nth substance listed, in mol/kg; conditions: 298.15 K, 100 kPa, Liquid; for molar conductivity: Alternating current cell with electrodes; for viscosity: Capillary tube (Ostwald / Ubbelohde) method; for speed of sound: Frequency=1 MHz, Linear variable-path acoustic interferometer; for mass density: Vibrating tube method

CNC=O [N-methylformamide]
Conditions	speed of sound [m/s]
[1], 100 kPa, Frequency=1 MHz, Linear variable-path acoustic interferometer	1430.3

[1], 101.33 kPa
Conditions	mass density [kg/m3]	viscosity [mPa·s]
Capillary tube (Ostwald / Ubbelohde) method	–	1.653
Vibrating tube method	999.12	–

[Na+].[O-][Cl+3]([O-])([O-])[O-] [sodium perchlorate] + CNC=O
[2]
Conditions	mass density [kg/m3]	molar conductivity [S·m2/mol]	speed of sound [m/s]	viscosity [mPa·s]
m1 = 0.0001833	–	0.00113	–	–
m1 = 0.0002554	–	0.00111	–	–
m1 = 0.0003247	–	0.00109	–	–
m1 = 0.0003795	–	0.00107	–	–
m1 = 0.0004397	–	0.00105	–	–
m1 = 0.0005067	–	0.00103	–	–
m1 = 0.0005588	–	0.00101	–	–
m1 = 0.000621	–	0.00099	–	–
m1 = 0.0006765	–	0.000978	–	–
m1 = 0.0007431	–	0.000963	–	–
m1 = 0.0007846	–	0.000956	–	–
m1 = 0.000822	–	0.000947	–	–
m1 = 0.0008833	–	0.000925	–	–
m1 = 0.0009622	–	0.000906	–	–
m1 = 0.0145	999.72	–	1434.9	1.664
m1 = 0.0298	1000.43	–	1449.6	1.674
m1 = 0.0448	1001.19	–	1470.8	1.683
m1 = 0.0599	1001.99	–	1499.1	1.692
m1 = 0.0751	1002.84	–	1534.9	1.702
m1 = 0.0902	1003.73	–	1576.7	1.711

CNC=O [N-methylformamide] + [Na+].[O-][Cl+3]([O-])([O-])[O-]
[2], m2 = 0
Conditions	mass density [kg/m3]	speed of sound [m/s]	viscosity [mPa·s]
–	999.12	1430.3	1.653

[K+].[O-][Cl+3]([O-])([O-])[O-] [potassium perchlorate] + CNC=O
[2]
Conditions	mass density [kg/m3]	molar conductivity [S·m2/mol]	speed of sound [m/s]	viscosity [mPa·s]
m1 = 0.0004439	–	0.00119	–	–
m1 = 0.0005285	–	0.00117	–	–
m1 = 0.0006265	–	0.00115	–	–
m1 = 0.0006838	–	0.00113	–	–
m1 = 0.000722	–	0.00113	–	–
m1 = 0.0007846	–	0.00112	–	–
m1 = 0.0008474	–	0.00112	–	–
m1 = 0.0009126	–	0.0011	–	–
m1 = 0.0009685	–	0.00109	–	–
m1 = 0.001057	–	0.00108	–	–
m1 = 0.001149	–	0.00106	–	–
m1 = 0.001216	–	0.00105	–	–
m1 = 0.00129	–	0.00103	–	–
m1 = 0.001359	–	0.00103	–	–
m1 = 0.0153	1000.04	–	1435.8	1.66
m1 = 0.0304	1001.02	–	1449.9	1.665
m1 = 0.0457	1002.07	–	1471.8	1.669
m1 = 0.0609	1003.15	–	1499.7	1.674
m1 = 0.0759	1004.25	–	1533.7	1.677
m1 = 0.0911	1005.39	–	1577.6	1.681

CNC=O [N-methylformamide] + [K+].[O-][Cl+3]([O-])([O-])[O-]
[2], m2 = 0
Conditions	mass density [kg/m3]	speed of sound [m/s]	viscosity [mPa·s]
–	999.12	1430.3	1.653

[Li+].[O-][Cl+3]([O-])([O-])[O-] [lithium perchlorate] + CNC=O
[2]
Conditions	mass density [kg/m3]	molar conductivity [S·m2/mol]	speed of sound [m/s]	viscosity [mPa·s]
m1 = 0.0001214	–	0.000939	–	–
m1 = 0.0001462	–	0.000926	–	–
m1 = 0.0001817	–	0.000907	–	–
m1 = 0.0002036	–	0.000895	–	–
m1 = 0.0002283	–	0.000879	–	–
m1 = 0.0002525	–	0.000875	–	–
m1 = 0.0002752	–	0.000854	–	–
m1 = 0.0003	–	0.000841	–	–
m1 = 0.0003244	–	0.000831	–	–
m1 = 0.0003557	–	0.000815	–	–
m1 = 0.0003756	–	0.000809	–	–
m1 = 0.0004004	–	0.000795	–	–
m1 = 0.0004406	–	0.000783	–	–
m1 = 0.0004687	–	0.000769	–	–
m1 = 0.015	999.44	–	1433.8	1.668
m1 = 0.0301	999.85	–	1447.3	1.682
m1 = 0.0452	1000.33	–	1468.1	1.696
m1 = 0.0603	1000.86	–	–	1.71
m1 = 0.0604	–	–	1494.8	–
m1 = 0.0755	1001.44	–	1529.4	1.725
m1 = 0.0907	1002.06	–	1569.9	1.738

CNC=O [N-methylformamide] + [Li+].[O-][Cl+3]([O-])([O-])[O-]
[2], m2 = 0
Conditions	mass density [kg/m3]	speed of sound [m/s]	viscosity [mPa·s]
–	999.12	1430.3	1.653
